Consider 22 compounds from patent US8309546B2, “Morpholinopurine derivatives” (Daiichi Sankyo Company, Limited, priority 2008, dated 2012).

Each structure is given as a SMILES string.

This experiment deals with human endometrial cancer cell strain AN3CA tumor. The experiment is described as follows: Anti-tumor effect assay using mouse subcutaneous transplantation model. To be noted: AN3-CA, oral, tumor weight vs negative control, read-out: Anti-tumor effect (tumor growth inhibition rate); for inhibition in vivo at 5 mg/kg/day / inhibition in vivo at 10 mg/kg/day / inhibition in vivo at 2.5 mg/kg/day: 8 or 5 consecutive days depending on compound; for inhibition in vivo at 20 mg/kg/day: consecutive days. The class given is in vivo, female nude mouse. Here is the method: A tumor section was prepared from a human endometrial cancer cell strain AN3CA tumor mass formed in a female nude mouse as a subcutaneously transplanted tumor and then a xenograft model was prepared by transplanting the tumor section into female nude mouse. Tumor-bearing mice having an estimated tumor volume (long diameter×short diameter×short diameter/2) of 80 to 200 mm^3 were divided, so that there should be no significant difference in the mean estimated tumor volume and body weight as compared with the negative control group to perform a test. The test compound was orally administered at a predetermined dose for 8 consecutive days. On the following day of the final administration day, tumor-bearing mice were anesthetized and exsanguinated to death and a tumor mass was isolated to measure tumor weight (the compounds of Examples 1, 3, 6, 8, 11, 12, and 14). Furthermore, as a similar test, the test compound was orally administered for 5 consecutive days, animals were sacrificed on the final administration day, and tumor weight was measured (the compounds of Examples 60, 63, 75, 77, 79, 89, 92, 107, 108, 109, 110, and 127).
In all the tests, anti-tumor effect was calculated by the following formula. {1−(tumor weight in compound treatment group/tumor weight in negative control group)}×100

`CC(C)Cn1c(N2CCN(S(C)(=O)=O)CC2)nc2c(N3CCOCC3)nc(-c3cnc(N)nc3)nc21` [Example 1, 5-{9-Isobutyl-8-[4-(methylsulfonyl)piperazin-1-yl]-6-morpholin-4-yl-9H-purin-2-yl}pyrimidin-2-amine]: the inhibition in vivo at 5 mg/kg/day came to 79% and the inhibition in vivo at 10 mg/kg/day came to 92%.

As to `CC(=O)N1CCN(c2nc3c(N4CCOCC4)nc(-c4cnc(N)nc4)nc3n2CC(C)C)CC1` [Example 2, 5-[8-(4-Acetylpiperazin-1-yl)-9-isobutyl-6-morpholin-4-yl-9H-purin-2-yl]pyrimidin-2-amine], the inhibition in vivo at 5 mg/kg/day worked out at 44% and the inhibition in vivo at 10 mg/kg/day came to 70%.

As for `CS(=O)(=O)N1CCN(c2nc3c(N4CCOCC4)nc(-c4cnc(N)nc4)nc3n2CC2CC2)CC1` [Example 3, 5-{9-(Cyclopropylmethyl)-8-[4-(methylsulfonyl)piperazin-1-yl]-6-morpholin-4-yl-9H-purin-2-yl}pyrimidin-2-amine], the inhibition in vivo at 5 mg/kg/day was determined as 75% and the inhibition in vivo at 10 mg/kg/day is 86%.

`Cc1nc(N)ncc1-c1nc(N2CCOCC2)c2nc(N3CCN(S(C)(=O)=O)CC3)n(CC3CC3)c2n1` [Example 6, 5-{9-(Cyclopropylmethyl)-8-[4-(methylsulfonyl)piperazin-1-yl]-6-morpholin-4-yl-9H-purin-2-yl}-4-methylpyrimidin-2-amine]: the inhibition in vivo at 5 mg/kg/day worked out at 66% and the inhibition in vivo at 10 mg/kg/day is 69%.

With `CS(=O)(=O)N1CCN(c2nc3c(N4CCOCC4)nc(-c4cnc(N)nc4)nc3n2CC(F)(F)F)CC1` [Example 8, 5-{8-[4-(Methylsulfonyl)piperazin-1-yl]-6-morpholin-4-yl-9-(2,2,2-trifluoroethyl)-9H-purin-2-yl}pyrimidin-2-amine], the inhibition in vivo at 2.5 mg/kg/day came to 72% and the inhibition in vivo at 5 mg/kg/day came to 93%.

For `CC(=O)N1CCN(c2nc3c(N4CCOCC4)nc(-c4cnc(N)nc4)nc3n2CC2CC2)CC1` [Example 10, 5-[8-(4-Acetylpiperazin-1-yl)-9-(cyclopropylmethyl)-6-morpholin-4-yl-9H-purin-2-yl]pyrimidin-2-amine], the inhibition in vivo at 10 mg/kg/day stood at 39% and the inhibition in vivo at 20 mg/kg/day is 73%.

Turning to `CNc1ncc(-c2nc(N3CCOCC3)c3nc(N4CCN(S(C)(=O)=O)CC4)n(CC(F)(F)F)c3n2)cn1` [Example 11, N-Methyl-5-{8-[4-(methylsulfonyl)piperazin-1-yl]-6-morpholin-4-yl-9-(2,2,2-trifluoroethyl)-9H-purin-2-yl}pyrimidin-2-amine], the inhibition in vivo at 2.5 mg/kg/day was found to be 68% and the inhibition in vivo at 5 mg/kg/day is 85%.

For the compound `C[C@@H]1CN(c2nc3c(N4CCOCC4)nc(-c4cnc(N)nc4)nc3n2CC(F)(F)F)C[C@H](C)N1` [Example 14, 5-[8-(cis-3,5-Dimethylpiperazin-1-yl)-6-morpholin-4-yl-9-(2,2,2-trifluoroethyl)-9H-purin-2-yl]pyrimidin-2-amine], the inhibition in vivo at 5 mg/kg/day came to 64% and the inhibition in vivo at 10 mg/kg/day worked out at 82%.

For the compound `CC(C)Cn1c(N2CCN(S(C)(=O)=O)[C@@H](C)C2)nc2c(N3CCOCC3)nc(-c3cnc(N)nc3)nc21` [Example 53, 5-{9-Isobutyl-8-[(3S)-3-methyl-4-(methylsulfonyl)piperazin-1-yl]-6-morpholin-4-yl-9H-purin-2-yl}pyrimidin-2-amine], the inhibition in vivo at 5 mg/kg/day was 45% and the inhibition in vivo at 10 mg/kg/day came to 68%.

On to `CC(C)Cn1c(N2CCN(S(C)(=O)=O)[C@H](C)C2)nc2c(N3CCOCC3)nc(-c3cnc(N)nc3)nc21` [Example 54, 5-{9-Isobutyl-8-[(3R)-3-methyl-4-(methylsulfonyl)piperazin-1-yl]-6-morpholin-4-yl-9H-purin-2-yl}pyrimidin-2-amine], for which the inhibition in vivo at 10 mg/kg/day was determined as 74% and the inhibition in vivo at 20 mg/kg/day stood at 82%.

Regarding `CC(C)Cn1c(N2CCN(C(=O)CN(C)C)CC2)nc2c(N3CCOCC3)nc(-c3cnc(N)nc3)nc21` [Example 55, 5-(8-{4-[(Dimethylamino)acetyl]piperazin-1-yl}-9-isobutyl-6-morpholin-4-yl-9H-purin-2-yl)pyrimidin-2-amine], the inhibition in vivo at 10 mg/kg/day amounted to 32% and the inhibition in vivo at 20 mg/kg/day came out at 59%.

With `CC(=O)N1CCN(c2nc3c(N4CCOCC4)nc(-c4cnc(N)nc4)nc3n2CC(F)(F)F)C[C@H]1C` [Example 60, 5-{8-[(3R)-4-Acetyl-3-methylpiperazin-1-yl]-6-morpholin-4-yl-9-(2,2,2-trifluoroethyl)-9H-purin-2-yl}pyrimidin-2-amine], for the setting “120 h, 1.5 mg/kg/day, 5 consecutive days”, the inhibition in vivo at 1.5 mg/kg/day came out at 64%. Besides, the inhibition in vivo at 6 mg/kg/day (120 h, 6 mg/kg/day, 5 consecutive days) was 89%.

As to `CC(=O)N1CCN(c2nc3c(N4CCOCC4)nc(-c4cnc(N)nc4)nc3n2CC(F)(F)F)C[C@@H]1C` [Example 63, 5-{8-[(3S)-4-Acetyl-3-methylpiperazin-1-yl]-6-morpholin-4-yl-9-(2,2,2-trifluoroethyl)-9H-purin-2-yl}pyrimidin-2-amine], for the setting “120 h, 0.875 mg/kg/day, 5 consecutive days”, the inhibition in vivo at 0.875 mg/kg/day came out at 52%. Further, where the note is “120 h, 3.5 mg/kg/day, 5 consecutive days”, the inhibition in vivo at 3.5 mg/kg/day turned out to be 88%.

Take `CC[C@H]1CN(c2nc3c(N4CCOCC4)nc(-c4cnc(N)nc4)nc3n2CC(F)(F)F)CCN1C(C)=O` [Example 75, 5-{8-[(3S)-4-Acetyl-3-ethylpiperazin-1-yl]-6-morpholin-4-yl-9-(2,2,2-trifluoroethyl)-9H-purin-2-yl}pyrimidin-2-amine]: under “120 h, 1.875 mg/kg/day, 5 consecutive days”, the inhibition in vivo at 1.875 mg/kg/day turned out to be 44%. Further, for the setting “120 h, 7.5 mg/kg/day, 5 consecutive days”, the inhibition in vivo at 7.5 mg/kg/day was found to be 77%.

For the compound `CC[C@H]1CN(c2nc3c(N4CCOCC4)nc(-c4cnc(N)nc4)nc3n2CC(F)(F)F)CCN1C(=O)[C@H](C)O` [Example 77, (2S)-1-{(2S)-4-[2-(2-Aminopyrimidin-5-yl)-6-morpholin-4-yl-9-(2,2,2-trifluoroethyl)-9H-purin-8-yl]-2-ethylpiperazin-1-yl}-1-oxopropan-2-ol], the inhibition in vivo at 3.75 mg/kg/day (120 h, 3.75 mg/kg/day, 5 consecutive days) was 47%. The inhibition in vivo at 15 mg/kg/day (120 h, 15 mg/kg/day, 5 consecutive days) is 84%.

Turning to `CC[C@@H]1CN(c2nc3c(N4CCOCC4)nc(-c4cnc(N)nc4)nc3n2CC(F)(F)F)CCN1C(=O)[C@H](C)O` [Example 79], the inhibition in vivo at 2.5 mg/kg/day was 27% and the inhibition in vivo at 10 mg/kg/day stood at 59%.

Turning to `CC(C)Cn1c(N2CCN(C(=O)C[C@@H](C)O)CC2)nc2c(N3CCOCC3)nc(-c3cnc(N)nc3)nc21` [Example 81, (2R)-4-{4-[2-(2-Aminopyrimidin-5-yl)-9-isobutyl-6-morpholin-4-yl-9H-purin-8-yl]piperazin-1-yl}-4-oxobutan-2-ol], the inhibition in vivo at 5 mg/kg/day came out at 37% and the inhibition in vivo at 10 mg/kg/day worked out at 74%.

For the compound `C[C@H](O)C(=O)N1CCN(c2nc3c(N4CCOCC4)nc(-c4cnc(N)nc4)nc3n2CC2CC2)CC1` [Example 88, (2S)-1-{4-[2-(2-Aminopyrimidin-5-yl)-9-(cyclopropylmethyl)-6-morpholin-4-yl-9H-purin-8-yl]piperazin-1-yl}-1-oxopropan-2-ol], the inhibition in vivo at 5 mg/kg/day stood at 30% and the inhibition in vivo at 10 mg/kg/day amounted to 54%.

For the compound `CC(C)Cn1c(N2CCN(C(=O)CO)CC2)nc2c(N3CCOCC3)nc(-c3cnc(N)nc3)nc21` [Example 89, 2-{4-[2-(2-Aminopyrimidin-5-yl)-9-isobutyl-6-morpholin-4-yl-9H-purin-8-yl]piperazin-1-yl}-2-oxoethanol], the inhibition in vivo at 5 mg/kg/day stood at 56% and the inhibition in vivo at 10 mg/kg/day is 69%.

As to `CC(C)Cn1c(N2CCN(C=O)CC2)nc2c(N3CCOCC3)nc(-c3cnc(N)nc3)nc21` [Example 90, 4-[2-(2-Aminopyrimidin-5-yl)-9-isobutyl-6-morpholin-4-yl-9H-purin-8-yl]piperazine-1-carboaldehyde], the inhibition in vivo at 5 mg/kg/day was 40% and the inhibition in vivo at 10 mg/kg/day was 80%.

As to `C[C@H](O)C(=O)N1CCN(c2nc3c(N4CCOCC4)nc(-c4cnc(N)nc4)nc3n2CC2CC2)C[C@@H]1C` [Example 92, (2S)-1-{(2S)-4-[2-(2-Aminopyrimidin-5-yl)-9-(cyclopropylmethyl)-6-morpholin-4-yl-9H-purin-8-yl]-2-methylpiperazin-1-yl}-1-oxopropan-2-ol], the inhibition in vivo at 5 mg/kg/day is 52% and the inhibition in vivo at 10 mg/kg/day turned out to be 61%.

Take `CC(C)Cn1c(N2CCN(C(=O)[C@@H](C)O)CC2)nc2c(N3CCOCC3)nc(-c3cnc(N)nc3)nc21` [Example 93]: the inhibition in vivo at 2.5 mg/kg/day was determined as 42% and the inhibition in vivo at 5 mg/kg/day came to 54%.
